In article PMC6195765 (Organic letters, 2018):

System: PvfC
Experiment: ATP-[…]PPi exchange assay
Type: biochemical, Pseudomonas entomophila
Details: ATP co-substrate; adenylation domain

- Km: 3.4 ± 0.7 mM
Compound: CC(C)[C@H](N)C(=O)O [L-Val]
